Values of other authors in US20110212189A1, “GASTRORETENTIVE ORAL HIGH DOSE ZINC PREPARATIONS” (ADEONA PHARMACEUTICALS, INC., priority 2009, published 2011).

Conditions: 50 mg elemental zinc taken with food

**Q.** Which nausea/vomiting effects does the source give for `O=S(=O)([O-])[O-].[Zn+2]` [zinc sulphate] here?
**A.** Its nausea/vomiting effects is “same effects have been observed”.
